The text below walks through data of publication PMC5478727, “A Novel Small Molecule GDNF Receptor RET Agonist, BT13, Promotes Neurite Growth from Sensory Neurons in Vitro and Attenuates Experimental Neuropathy in the Rat” (Frontiers in Pharmacology, 2017).

One series has as its target T1, RET (Homo sapiens, UniProt P07949).
T1 construct: full-length human RET (long isoform) in pCR3.1; expressed in transfected cells; host or cells: MG87RET murine fibroblasts
Kind of series: Luciferase reporter-gene assay (PathDetect Elk-1), RET reporter cells. The class given is cell-based. As to conditions: RET reporter cell line. A general note: Reporter assays use an easily measured gene product as a stand-in for the process of interest.

For a further series, the system named is TrkA. Kind of series: TrkA phosphorylation assay in MG87TrkA cells. The class given is cell-based. The following applies: BT13 10–100 μM, NGF positive control. The procedure: (§1) MG87RET, MG87TrkA, or MG87TrkB were plated on 35 mm tissue culture dishes 1–2 days before the experiment to achieve 90–95% of confluency of the cells at the day of stimulation with tested substances. If necessary, cells were transfected with 4 μg/well of GFRα1-, GFRα3-, or green fluorescent protein (GFP)-expressing plasmid using Lipofectamine 2000 (Invitrogen) for DNA delivery as described by manufacturer. Before the experiment cells were starved in serum-free DMEM containing 15 mM HEPES, pH 7.2 and 1% DMSO for 4 h and stimulated with BT13 or neurotrophic factors. Then cells were washed once with ice-cold PBS containing 1 mM Na3VO4 and 1 mM NaF and lysed on ice in 1 ml per well of RIPA-modified buffer (50 mM Tris-HCl, pH 7.4, 150 mM NaCl, 1 mM EDTA, 1% NP-40, 1% TX-100, 10% glycerol, EDTA-free protease inhibitor cocktail (Roche), 1 mM Na3VO4, 2.5 mg/ml of sodium deoxycholate, 1 mM NaF). Plates were incubated at +4°C on the horizontal shaker for 30 min with vigorous shaking. Afterwards, 80–100 μl aliquot was taken from each well to prepare whole cell lysates. This aliquot was mixed with equal volume of 2x Laemmli loading buffer (4% SDS, 20% glycerol, 10% 2-mercaptoethanol, 0.004% bromphenol blue, 0.125 M Tris HCl, pH 6.8) and boiled for 10 min at 100°C. Remaining cell lysates were used for immunoprecipitation of RET or Trk receptors. […]

The target in a further series is T2, TrkB (Rattus norvegicus, UniProt Q63604).
T2 construct: expressed in transfected cells; host or cells: MG87 murine fibroblasts (MG87TrkB)
Kind of series: TrkB phosphorylation assay in MG87TrkB cells. As to conditions: BT13 10–100 μM, BDNF positive control. The series is classed as cell-based. The procedure: as §1

Series [1] deals with Akt and Erk phosphorylation in MG87TrkA. In words: Erk1/2 and Akt phosphorylation assay in MG87TrkA cells. The series is classed as cell-based, murine. The following applies: BT13 10–100 μM, NGF positive control. The procedure: as §1
Series [2] in a line: Metabolic stability in liver microsomes. The series is classed as in vitro ADME. As to conditions: 0.5 mg/ml rat liver microsomes; read-out: Microsomal stability (% remaining in 30 min). (Microsomes from liver hold many membrane-bound enzymes, among them those of drug oxidation.)
In series [3] the target is T3, adrenergic receptor beta 3 (Homo sapiens, UniProt P13945).
T3 construct: purchased CEREP (contract assay) Cat# 3963
In words: CEREP Beta 3 (non-selective; antagonist radioligand). The series is classed as binding. As to conditions: BT13 1 μM; Cat. No. 3963; average of duplicate; read-out: Percentage of inhibition/potentiation from control.

Series [4] concerns the target cholecystokinin receptor CK1 (CCKA) (Homo sapiens, UniProt P32238). Kind of series: CEREP CK1 (CCKA) (h) (agonist radioligand). As to conditions: BT13 1 μM; Cat. No. 0039; average of duplicate; read-out: Percentage of inhibition/potentiation from control. The class given is binding.
Series [5] addresses T4, vasoactive intestinal peptide receptor PAC1 (PACAP) (Homo sapiens, UniProt P41586).
T4 construct: purchased CEREP (contract assay) 1518
In words: CEREP PAC1 (PACAP) (h) (agonist radioligand). The series is classed as binding. The following applies: BT13 1 μM; Cat. No. 1518; average of duplicate; read-out: Percentage of inhibition/potentiation from control.

The target of series [6] is T5, serotonin receptor 5-HT1A (Homo sapiens, UniProt P08908).
T5 construct: purchased CEREP (contract assay) 0131
Kind of series: CEREP 5-HT1A (h) (agonist radioligand). The class given is binding. As to conditions: BT13 1 μM; Cat. No. 0131; average of duplicate; read-out: Percentage of inhibition/potentiation from control.

The next series relates to rats. In words: Tolerability: weight gain, toxic signs, pathological analysis of major organs. The class given is in vivo, rat.

T1 sequence (P07949 29-1114): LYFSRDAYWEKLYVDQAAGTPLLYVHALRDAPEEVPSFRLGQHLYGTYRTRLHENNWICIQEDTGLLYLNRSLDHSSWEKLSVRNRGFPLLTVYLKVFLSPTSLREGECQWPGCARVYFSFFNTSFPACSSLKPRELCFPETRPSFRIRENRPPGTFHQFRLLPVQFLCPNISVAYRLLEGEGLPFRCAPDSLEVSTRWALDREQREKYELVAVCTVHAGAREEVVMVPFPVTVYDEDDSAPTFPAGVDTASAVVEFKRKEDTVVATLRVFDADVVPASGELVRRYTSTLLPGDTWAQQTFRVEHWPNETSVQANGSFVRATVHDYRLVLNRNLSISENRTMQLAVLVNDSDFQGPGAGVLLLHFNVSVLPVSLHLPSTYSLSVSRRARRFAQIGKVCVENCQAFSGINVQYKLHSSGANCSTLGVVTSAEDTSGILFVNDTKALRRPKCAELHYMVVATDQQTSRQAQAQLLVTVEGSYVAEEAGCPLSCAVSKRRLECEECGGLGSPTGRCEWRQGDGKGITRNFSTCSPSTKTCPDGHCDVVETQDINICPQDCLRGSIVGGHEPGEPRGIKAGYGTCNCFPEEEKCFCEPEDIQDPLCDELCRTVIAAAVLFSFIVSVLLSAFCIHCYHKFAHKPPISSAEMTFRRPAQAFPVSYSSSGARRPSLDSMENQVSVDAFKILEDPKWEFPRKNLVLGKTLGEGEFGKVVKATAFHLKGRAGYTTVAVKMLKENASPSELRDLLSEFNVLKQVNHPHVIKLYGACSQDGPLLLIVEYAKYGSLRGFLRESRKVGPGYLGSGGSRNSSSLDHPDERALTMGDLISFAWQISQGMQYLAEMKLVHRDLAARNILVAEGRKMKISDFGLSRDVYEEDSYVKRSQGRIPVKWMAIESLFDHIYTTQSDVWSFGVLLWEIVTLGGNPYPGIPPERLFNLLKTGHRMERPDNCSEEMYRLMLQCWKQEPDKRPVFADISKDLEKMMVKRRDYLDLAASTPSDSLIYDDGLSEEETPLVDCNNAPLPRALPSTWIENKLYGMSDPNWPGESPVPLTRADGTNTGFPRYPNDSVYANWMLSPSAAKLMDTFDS
T2 sequence (Q63604 32-821): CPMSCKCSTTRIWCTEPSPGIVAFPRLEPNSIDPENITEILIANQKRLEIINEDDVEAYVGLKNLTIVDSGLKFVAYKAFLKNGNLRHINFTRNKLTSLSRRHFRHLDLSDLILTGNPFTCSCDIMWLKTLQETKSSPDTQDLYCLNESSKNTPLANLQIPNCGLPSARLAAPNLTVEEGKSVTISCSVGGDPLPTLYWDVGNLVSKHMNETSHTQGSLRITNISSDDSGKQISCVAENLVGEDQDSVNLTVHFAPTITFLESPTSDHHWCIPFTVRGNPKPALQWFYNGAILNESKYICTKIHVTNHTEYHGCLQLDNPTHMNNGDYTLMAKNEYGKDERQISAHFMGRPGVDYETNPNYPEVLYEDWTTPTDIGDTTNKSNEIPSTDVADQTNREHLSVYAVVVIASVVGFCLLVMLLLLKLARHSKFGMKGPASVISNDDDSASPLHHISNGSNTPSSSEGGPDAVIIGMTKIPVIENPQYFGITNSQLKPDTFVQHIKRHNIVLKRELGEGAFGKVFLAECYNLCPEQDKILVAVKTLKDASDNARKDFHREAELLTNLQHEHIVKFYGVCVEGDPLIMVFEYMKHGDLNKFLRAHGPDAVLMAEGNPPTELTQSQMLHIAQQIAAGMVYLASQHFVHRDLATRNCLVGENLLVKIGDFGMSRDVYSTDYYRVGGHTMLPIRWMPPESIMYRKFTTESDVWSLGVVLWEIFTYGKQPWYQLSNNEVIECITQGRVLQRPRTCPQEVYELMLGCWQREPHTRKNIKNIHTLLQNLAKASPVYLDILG
Sequence of cholecystokinin receptor CK1 (CCKA) (P32238 whole entry): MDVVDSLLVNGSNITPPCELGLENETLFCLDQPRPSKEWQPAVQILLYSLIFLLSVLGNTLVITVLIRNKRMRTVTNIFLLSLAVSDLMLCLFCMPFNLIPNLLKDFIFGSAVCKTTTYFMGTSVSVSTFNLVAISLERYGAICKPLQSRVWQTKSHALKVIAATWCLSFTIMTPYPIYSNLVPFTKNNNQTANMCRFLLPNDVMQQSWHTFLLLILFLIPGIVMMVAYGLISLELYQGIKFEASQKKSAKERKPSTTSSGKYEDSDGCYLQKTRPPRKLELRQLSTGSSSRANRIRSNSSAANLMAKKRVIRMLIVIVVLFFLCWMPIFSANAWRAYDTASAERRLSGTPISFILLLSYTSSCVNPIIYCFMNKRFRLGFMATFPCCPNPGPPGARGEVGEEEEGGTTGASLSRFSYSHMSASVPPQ
T3 sequence (P13945 whole entry): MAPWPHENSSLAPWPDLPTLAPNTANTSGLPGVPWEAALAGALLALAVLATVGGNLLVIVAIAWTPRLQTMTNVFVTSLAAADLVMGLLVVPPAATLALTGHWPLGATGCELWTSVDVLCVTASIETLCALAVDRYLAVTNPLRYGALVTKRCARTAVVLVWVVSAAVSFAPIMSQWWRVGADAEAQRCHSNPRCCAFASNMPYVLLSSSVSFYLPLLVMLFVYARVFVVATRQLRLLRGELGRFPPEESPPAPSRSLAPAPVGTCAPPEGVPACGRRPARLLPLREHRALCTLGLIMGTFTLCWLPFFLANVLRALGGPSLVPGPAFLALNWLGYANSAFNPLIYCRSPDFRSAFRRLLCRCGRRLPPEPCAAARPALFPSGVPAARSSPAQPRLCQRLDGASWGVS
T4 sequence (P41586 21-468): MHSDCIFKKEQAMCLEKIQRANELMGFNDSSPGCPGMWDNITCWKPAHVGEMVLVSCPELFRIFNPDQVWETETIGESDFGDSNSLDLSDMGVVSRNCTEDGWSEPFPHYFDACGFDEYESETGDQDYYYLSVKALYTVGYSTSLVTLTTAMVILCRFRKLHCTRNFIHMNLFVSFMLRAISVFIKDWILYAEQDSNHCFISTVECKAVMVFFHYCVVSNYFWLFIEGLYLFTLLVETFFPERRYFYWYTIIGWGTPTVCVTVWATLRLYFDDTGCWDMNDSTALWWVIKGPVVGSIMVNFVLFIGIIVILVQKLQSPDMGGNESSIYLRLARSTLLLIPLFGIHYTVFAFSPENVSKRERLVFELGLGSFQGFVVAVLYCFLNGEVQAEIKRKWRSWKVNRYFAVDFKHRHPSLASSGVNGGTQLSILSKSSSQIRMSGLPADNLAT
T5 sequence (P08908 whole entry): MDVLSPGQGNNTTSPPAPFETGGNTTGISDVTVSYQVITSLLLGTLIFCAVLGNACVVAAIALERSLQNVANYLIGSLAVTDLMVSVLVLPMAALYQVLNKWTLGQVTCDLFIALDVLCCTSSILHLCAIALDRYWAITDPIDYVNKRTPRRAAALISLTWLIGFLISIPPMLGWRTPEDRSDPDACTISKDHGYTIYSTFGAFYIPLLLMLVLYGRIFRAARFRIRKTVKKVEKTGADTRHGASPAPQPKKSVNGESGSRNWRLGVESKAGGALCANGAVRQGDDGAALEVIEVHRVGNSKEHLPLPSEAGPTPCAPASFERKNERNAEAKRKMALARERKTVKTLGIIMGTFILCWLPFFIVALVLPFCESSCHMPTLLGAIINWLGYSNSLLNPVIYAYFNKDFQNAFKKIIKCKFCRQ

For orientation: EC50 means the concentration giving half of the maximal effect. One may read the amount remaining as what is left of the initial amount, in per cent. As to `CCN(CC)S(=O)(=O)c1ccc(OC)c(N2CCN(C(=O)c3ccc(F)cc3C(F)(F)F)CC2)c1` [BT13], the “efficacy, fold induction of luciferase above baseline” value at RET amounted to 7.4 fold. Further, the EC50 on RET (0.1–50 μM, read-out: EC50, luciferase activation) was 20.7 µM. Further, the “TrkA phosphorylation, Western blotting” value in the series on TrkA is recorded as “did not produce any detectable increase”. Besides, the “TrkB phosphorylation, Western blotting” value at TrkB is “did not produce any detectable increase”. Moreover, the “Akt and Erk phosphorylation” value in series [1] is “no Akt or Erk phosphorylation was observed”. In [2], the share remaining at 0.5 h was 2.8 ± 0.1%. Further, the inhibition at 1 µM in series [3] is -5%; in series [4] it was 3%; in series [5] it was 14%; in [6] it was -8%. The “significant histopathological changes in major organs” value in the series on rats (after completion of behavioral experiments) is “not detected”. Besides, the “acute toxic effects, signs of pain or discomfort” value in the series with rats (experimental animals treated with BT13) was “No acute toxic effects, signs of pain or obvious discomfort”. The “tumor formation in the tissues of rats” value in the series on rats (rat, in vivo) is recorded as “no tumor formation”.
